Assay results from ChEMBL document CHEMBL1157915, “Bivalent beta-carbolines as potential multitarget anti-Alzheimer agents” (J Med Chem, 2010).
Where “and” joins values, the source holds several entries; their conditions need not be identical. Identical values can stand only once.

Key:
Acetylcholinesterase = Acetylcholinesterase (Electrophorus electricus, UniProt O42275)
Description: Inhibition of electric eel AChE by modified Ellman's method

Cholinesterase = Cholinesterase (Equus caballus, UniProt P81908)
Description: Inhibition of equine serum BChE by modified Ellman's method

[1] = Cytotoxicity against mouse L12-G10 cells by MTT assay; format: cell-based
[2] = Cytotoxicity against mouse L12-G10 cells at 50 uM by MTT assay; format: cell-based; settings: l12-g10, 50 µM
[3] = molecular target: Glutamate NMDA receptor; GRIN1/GRIN2B (Homo sapiens, UniProt Q05586+Q13224); experiment: Displacement of [3H]ifenprodil from human NR1-1a/NR2B receptor expressed in mouse L13-E6 cells; format: cell-based
[4] = molecular target: Glutamate NMDA receptor; GRIN1/GRIN2A (Homo sapiens) (UniProt Q05586+Q12879); settings: L12-G10, 100 uM
Description: Inhibition of dexamethasone-induced human NR1-1a/NR2A receptor-mediated excitotoxicity in (S)-glutamate/glycine-stimulated mouse L12-G10 cells assessed as LDH release at 100 uM after 30 mins

Chain of Acetylcholinesterase (O42275 whole entry): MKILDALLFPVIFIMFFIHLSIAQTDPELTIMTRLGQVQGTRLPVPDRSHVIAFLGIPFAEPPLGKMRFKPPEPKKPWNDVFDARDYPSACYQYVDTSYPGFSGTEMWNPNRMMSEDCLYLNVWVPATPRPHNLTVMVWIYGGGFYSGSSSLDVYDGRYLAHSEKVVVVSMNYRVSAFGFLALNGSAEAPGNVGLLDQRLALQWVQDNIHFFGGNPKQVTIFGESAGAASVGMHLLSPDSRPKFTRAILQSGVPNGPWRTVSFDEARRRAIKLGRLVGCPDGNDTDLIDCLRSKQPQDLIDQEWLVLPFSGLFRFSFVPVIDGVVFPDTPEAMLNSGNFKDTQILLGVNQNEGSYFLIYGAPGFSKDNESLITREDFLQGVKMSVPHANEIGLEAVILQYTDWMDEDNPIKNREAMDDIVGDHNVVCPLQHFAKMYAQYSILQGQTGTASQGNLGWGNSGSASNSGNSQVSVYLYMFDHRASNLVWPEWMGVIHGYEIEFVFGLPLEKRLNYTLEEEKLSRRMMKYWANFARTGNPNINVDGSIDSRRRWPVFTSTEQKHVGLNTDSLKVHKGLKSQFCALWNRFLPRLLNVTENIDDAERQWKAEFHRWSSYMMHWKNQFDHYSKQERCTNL
Chain of Cholinesterase (P81908 whole entry): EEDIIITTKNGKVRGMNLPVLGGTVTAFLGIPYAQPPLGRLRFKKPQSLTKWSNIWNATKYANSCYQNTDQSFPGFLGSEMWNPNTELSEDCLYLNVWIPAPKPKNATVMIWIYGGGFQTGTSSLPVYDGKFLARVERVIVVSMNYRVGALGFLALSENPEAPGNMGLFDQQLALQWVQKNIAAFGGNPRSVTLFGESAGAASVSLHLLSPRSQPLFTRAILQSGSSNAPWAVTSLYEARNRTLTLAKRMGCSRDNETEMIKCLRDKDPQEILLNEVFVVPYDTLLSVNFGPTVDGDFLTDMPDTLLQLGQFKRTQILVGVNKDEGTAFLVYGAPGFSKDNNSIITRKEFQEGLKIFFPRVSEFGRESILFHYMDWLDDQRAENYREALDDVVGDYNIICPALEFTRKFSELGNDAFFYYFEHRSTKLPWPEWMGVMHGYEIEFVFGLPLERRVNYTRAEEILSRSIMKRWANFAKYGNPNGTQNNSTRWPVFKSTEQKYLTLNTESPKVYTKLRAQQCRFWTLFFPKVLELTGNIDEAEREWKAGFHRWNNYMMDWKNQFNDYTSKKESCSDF
Chain of Glutamate NMDA receptor; GRIN1/GRIN2B (Q13224 whole entry, other chains not shown): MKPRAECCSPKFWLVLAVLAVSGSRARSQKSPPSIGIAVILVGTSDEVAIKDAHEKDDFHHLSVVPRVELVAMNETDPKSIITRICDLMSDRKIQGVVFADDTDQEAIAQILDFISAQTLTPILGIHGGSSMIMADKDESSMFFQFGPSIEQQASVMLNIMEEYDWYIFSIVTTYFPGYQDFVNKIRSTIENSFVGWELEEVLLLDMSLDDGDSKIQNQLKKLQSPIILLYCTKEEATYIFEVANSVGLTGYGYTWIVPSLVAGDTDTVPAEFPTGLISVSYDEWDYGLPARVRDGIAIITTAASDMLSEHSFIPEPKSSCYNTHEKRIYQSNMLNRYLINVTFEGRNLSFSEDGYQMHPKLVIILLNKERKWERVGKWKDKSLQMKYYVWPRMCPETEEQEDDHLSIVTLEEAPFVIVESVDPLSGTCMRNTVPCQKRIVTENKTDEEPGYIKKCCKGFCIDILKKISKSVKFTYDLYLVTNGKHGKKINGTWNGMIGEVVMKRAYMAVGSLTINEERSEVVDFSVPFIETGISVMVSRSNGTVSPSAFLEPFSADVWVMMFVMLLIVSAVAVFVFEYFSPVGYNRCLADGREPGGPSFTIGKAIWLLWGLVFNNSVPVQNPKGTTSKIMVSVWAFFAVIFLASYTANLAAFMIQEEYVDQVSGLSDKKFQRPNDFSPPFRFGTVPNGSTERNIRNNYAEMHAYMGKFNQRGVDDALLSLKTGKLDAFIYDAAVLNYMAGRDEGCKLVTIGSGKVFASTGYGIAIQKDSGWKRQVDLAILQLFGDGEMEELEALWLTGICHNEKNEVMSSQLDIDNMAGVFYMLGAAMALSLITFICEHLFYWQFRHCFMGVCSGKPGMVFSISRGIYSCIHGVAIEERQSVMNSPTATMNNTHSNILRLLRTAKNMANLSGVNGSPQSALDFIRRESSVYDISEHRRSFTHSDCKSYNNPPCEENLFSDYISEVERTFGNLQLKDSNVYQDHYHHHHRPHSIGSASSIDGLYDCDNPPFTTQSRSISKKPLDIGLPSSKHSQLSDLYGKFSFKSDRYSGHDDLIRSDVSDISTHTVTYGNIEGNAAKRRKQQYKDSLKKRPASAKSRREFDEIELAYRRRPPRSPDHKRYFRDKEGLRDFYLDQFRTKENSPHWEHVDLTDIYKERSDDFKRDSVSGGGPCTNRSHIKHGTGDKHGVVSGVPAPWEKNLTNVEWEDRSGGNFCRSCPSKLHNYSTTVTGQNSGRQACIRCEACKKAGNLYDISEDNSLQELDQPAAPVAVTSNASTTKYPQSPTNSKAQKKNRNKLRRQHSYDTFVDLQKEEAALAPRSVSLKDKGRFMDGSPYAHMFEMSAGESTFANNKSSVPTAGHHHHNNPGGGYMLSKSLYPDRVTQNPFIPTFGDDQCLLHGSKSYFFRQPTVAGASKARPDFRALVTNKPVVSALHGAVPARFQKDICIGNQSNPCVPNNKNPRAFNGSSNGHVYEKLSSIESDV

| SMILES | IC50 (Acetylcholinesterase) [nM] | IC50 (Cholinesterase) | CC50 [1] [nM] | Activity [2] [%] | Ki [3] [nM] | inhibition [4] [%] |
| --- | --- | --- | --- | --- | --- | --- |
| c1ccc2c(c1)c1ccncc1n2CCCCCn1c2ccccc2c2ccncc21 | > 10000 | > 1000 nM |  |  |  |  |
| [Br-].[Br-].c1ccc2c(c1)[nH]c1c[n+](CCCCC[n+]3ccc4c(c3)[nH]c3ccccc34)ccc12 | 595 | 48.9 nM and 48 nM | > 100000 | 92.4 |  |  |
| CCn1c2ccccc2c2ccncc21 | > 1000 | > 10000 nM |  |  |  |  |
| [Br-].[Br-].c1ccc2c(c1)[nH]c1c[n+](CCCCCCCCC[n+]3ccc4c(c3)[nH]c3ccccc34)ccc12 | 125 | 40 nM | > 100000 | 73.8 |  |  |
| c1ccc2c3c([nH]c2c1)CN(CCCCCCCCCCN1CCc2c([nH]c4ccccc24)C1)CC3 | > 1000 | 2900 nM |  |  |  |  |
| [Br-].[Br-].c1ccc2c(c1)[nH]c1c[n+](CCOCCOCCOCC[n+]3ccc4c(c3)[nH]c3ccccc34)ccc12 | 3140 | 195 nM | > 100000 | 98.6 |  |  |
| [Br-].[Br-].c1ccc2c(c1)[nH]c1c[n+](CCCC[n+]3ccc4c(c3)[nH]c3ccccc34)ccc12 | 278 | 78 nM | > 100000 | 78.2 |  |  |
| c1ccc2c(c1)c1ccncc1n2CCCCCCCCCCCCn1c2ccccc2c2ccncc21 | > 10000 | > 10000 nM | > 100000 | 100.2 |  |  |
| CC12CC3CC(C)(C1)CC(N)(C3)C2 [MEMANTINE] | > 10000 | > 10000 nM | > 100000 | 100.4 |  |  |
| C[n+]1ccc2c3ccccc3n(CCCCCn3c4ccccc4c4cc[n+](C)cc43)c2c1 | 280 | 19 nM |  |  |  |  |
| CCn1c2ccccc2c2cc[n+](C)cc21 | 2570 | 2020 nM |  |  |  |  |
| [Br-].[Br-].c1ccc2c(c1)[nH]c1c[n+](CCCCCCC[n+]3ccc4c(c3)[nH]c3ccccc34)ccc12 | 81 | 65 nM | > 100000 | 80.1 |  |  |
| c1ccc2c3c([nH]c2c1)CN(CCCCCN1CCc2c([nH]c4ccccc24)C1)CC3 | > 1000 | > 1000 nM |  |  |  |  |
| [Br-].[Br-].c1ccc2c(c1)[nH]c1c[n+](CCCCCCCCCCCC[n+]3ccc4c(c3)[nH]c3ccccc34)ccc12 | 86 | 22 nM | 35100 | 38 |  |  |
| c1ccc2c(c1)c1ccncc1n2CCCCCCCCCn1c2ccccc2c2ccncc21 |  |  | > 100000 | 67.7 |  |  |
| CCC[n+]1ccc2c(c1)[nH]c1ccccc12 | 845 | 2310 nM |  |  |  |  |
| [Br-].[Br-].c1ccc2c(c1)[nH]c1c[n+](CCCCCCCCCCC[n+]3ccc4c(c3)[nH]c3ccccc34)ccc12 | 92 | 18 nM | > 100000 | 60.3 |  |  |

| SMILES | IC50 (Acetylcholinesterase) [nM] | IC50 (Cholinesterase) | CC50 [1] [nM] | Activity [2] [%] | Ki [3] [nM] | inhibition [4] [%] |
| --- | --- | --- | --- | --- | --- | --- |
| [Br-].[Br-].c1ccc2c(c1)[nH]c1c[n+](CCCCCCCCCC[n+]3ccc4c(c3)[nH]c3ccccc34)ccc12 | 63 | 49 nM | > 100000 | 67.5 |  |  |
| C[n+]1ccc2c3ccccc3n(CCCCCCCCCn3c4ccccc4c4cc[n+](C)cc43)c2c1.[I-].[I-] |  |  | > 100000 | 78.9 |  |  |
| [Br-].[Br-].c1ccc2c(c1)[nH]c1c[n+](CCCCCC[n+]3ccc4c(c3)[nH]c3ccccc34)ccc12 | 248 | 186 nM | > 100000 | 75 | 20000 |  |
| CNC1(c2ccccc2Cl)CCCCC1=O (centres undefined) [KETAMINE] | > 10000 | > 10000 nM | > 100000 | 99.8 |  |  |
| NCCCNCCCCNCCCN |  |  |  |  |  | 108 |
| C[n+]1ccc2c(c1)[nH]c1ccccc12 | > 10000 | 540 nM |  |  |  |  |
| [Br-].[Br-].c1ccc2c(c1)[nH]c1c[n+](CC[n+]3ccc4c(c3)[nH]c3ccccc34)ccc12 | 430 | 319 nM | > 100000 | 76.6 |  |  |
| COc1ccc2[nH]c3c[n+](CCCCC[n+]4ccc5c(c4)[nH]c4ccc(OC)cc45)ccc3c2c1.[Br-].[Br-] | > 10000 | 319 nM | > 100000 | 84.1 |  |  |
| Oc1ccc2[nH]c3c[n+](CCCCC[n+]4ccc5c(c4)[nH]c4ccc(O)cc45)ccc3c2c1.[Br-].[Br-] | 4260 | 1630 nM | > 100000 | 71.8 |  |  |
| [Br-].[Br-].c1ccc2c(c1)[nH]c1c[n+](CCCCCCCC[n+]3ccc4c(c3)[nH]c3ccccc34)ccc12 | 113 | 75 nM | 54200 | 51.8 |  |  |
| c1cc[n+](CCCCCC[n+]2ccc3c(c2)[nH]c2ccccc23)cc1 | 564 | 6330 nM |  |  |  |  |
| C[n+]1ccc2c3ccccc3n(CCCCCCCCCCCCn3c4ccccc4c4cc[n+](C)cc43)c2c1.[I-].[I-] | 1.2 | 4 nM | 33800 | 52.9 |  |  |
| [Br-].[Br-].c1ccc2c(c1)[nH]c1c[n+](Cc3ccc(C[n+]4ccc5c(c4)[nH]c4ccccc45)cc3)ccc12 | 147 | 439 nM and 473 nM | > 100000 | 83.2 |  |  |
| [Br-].[Br-].c1ccc2c(c1)[nH]c1c[n+](CCC[n+]3ccc4c(c3)[nH]c3ccccc34)ccc12 | 7660 | 652 nM | > 100000 | 82.5 |  |  |
| c1cc[n+](CCCCCC[n+]2ccccc2)cc1 | > 10000 | > 10000 nM |  |  |  |  |
| C[C@]12N[C@H](Cc3ccccc31)c1ccccc12 [DIZOCILPINE] |  |  | > 100000 | 100.3 |  |  |
